Columns and labels:
[1] = system: BMMCs; assay: Fluo-4 calcium assay, BMMCs; format: cell-based, mouse
Description: FIGS. 3A-3H. A15 inhibits calcium influx in RBL-2H3 cells and BMMCs. RBL-2H3 cells (FIGS. 3A-3D) and BMMCs (FIGS. 3E-3H) were plated and incubated overnight prior to treatments. For DNP-BSA treatments, overnight incubation also included 1 μg/mL IgE anti-DNP. Prior to stimulation, cells were washed and loaded with the fluorescent, calcium-sensitive dye fluo-4 AM using the Fluo-4 AM Direct™ Calcium Assay Kit and fluorescence was measured on a microplate reader. Calcium influx was triggered in all experiments using either 1 μM A23187 or 50 ng/mL DNP-BSA, as indicated. Bar graphs represent the means±SEM of the Δ in RFU's at 1 min post-A23187- or DNP-BSA-stimulation from 3 independent experiments (FIGS. 3B, 3D, 3F, 3H). Statistical analysis was performed using a one-way ANOVA with Dunnett's post-hoc test, *p<0.05, **p<0.01, ***p<0.001.
RBL-2H3, BMMC, RAW 264.7, or Jurkat cells were plated in clear-bottom, black, 96-well plates (BioExpress, Kaysville, Utah) and incubated overnight with media only or media containing IgE anti-DNP. Cells were loaded with the calcium-sensitive dye fluo-4 AM using the Fluo-4 Direct™ Calcium Assay Kit (Thermo Fisher Scientific) according to the manufacturer's instructions by incubating at 37° C. for 30 min followed by 30 min at room temperature. Prior to stimulation, baseline fluorescent readings were measured from triplicate wells in 5 s intervals for 1 min using a Synergy HT microplate reader with 485/20 nm excitation and 528/20 nm emission filters. Cells were then treated with either 1 μM A23187 or 50 ng/mL DNP-BSA prepared in calcium- and magnesium-containing or calcium- and magnesium-free HBSS with 20 mM HEPES, and fluorescence was measured in 10 s intervals for 2 min. The final concentration of ethanol was 0.25% in these assays. The average baseline fluorescence of each well was subtracted from the stimulated fluorescent values to calculate the change (Δ) in RFU's and graphed as shown.

[2] = system: RBL-2H3 cells; assay: Histamine release, competitive EIA; format: cell-based, rat; conditions: RBL-2H3 cells treated with A23187, 1 hr
Description: FIGS. 1A-1F. A15 inhibits BMMC and RBL-2H3 cell degranulation. The structure of alkamide A15 is shown with different functional groups and carbons in the fatty acid chain labeled (FIG. 1A). BMMCs were plated and stimulated 4 hrs later with 1 μM A23187 and the indicated concentrations of A15 or vehicle only. The percent degranulation was measured after 1 hr (FIG. 1B). RBL-2H3 cells were treated with A23187 and the percent degranulation was determined 1 hr later (FIG. 1C) or every 10 min over a 1 hr time course (FIG. 1D). RBL-2H3 cells were plated and incubated for 4 hrs before the media was aspirated and replaced with media containing 1 μg/mL IgE anti-DNP. Cells were incubated overnight and washed prior to stimulation. The percent degranulation from RBL-2H3 cells was calculated after stimulation with 50 ng/mL DNP-HSA in combination with the indicated concentrations of A15 or vehicle only after 1 hr (FIG. 1E). RBL-2H3 cells were stimulated for 1 hr in Tyrode's buffer before supernatants were collected and levels of histamine were measured using a competitive inhibition EIA kit (FIG. 1F). Data shown are the means±SEM from 3-4 independent experiments (FIG. 1B, FIG. 1C and FIG. 1F) or the means±SEM of triplicate wells from a representative experiment from 3 independent experiments (FIG. 1D and FIG. 1E). […]

[3] = system: RBL-2H3 cells; assay: Calcium assay, Fluo-4 (Example 3); format: cell-based, rat
Description: FIGS. 22A-22D. The alkamide fatty acid is necessary for inhibition of calcium influx. RBL-2H3 cells were plated overnight, incubated with Fluo-4 AM for 1 h, stimulated by 1 μM A23187 (FIG. 22A) or 5 ng/mL DNP-BSA (FIG. 22B) in the absence or presence of each alkamide, and fluorescence was read for 2 mins every 5 secs. Data are presented as the mean change in RFU of 4 experiments. Percent inhibition of calcium influx was calculated for A23187 (FIG. 22C) and DNP-BSA (FIG. 22D) stimulated cells at 2 mins. *P<0.05, **P<0.01, and ***P<0.001 one-way ANOVA with Dunnett's post hoc test compared to A15.
RBL-2H3 cells (1.0×10^5 cells) were incubated overnight in a 96 well black-wall clear bottom plate with or without IgE-DNP (0.1 μg/mL) at 37° C. with 5% CO2. The assay was performed using the Fluo-4 Direct™ Calcium Assay Kit according to the manufacturer's instruction. Briefly, cells were incubated with the Fluo-4 Direct calcium reagent loading solution for 30 minutes at 37° C. with 5% CO2 then 30 mins at room temperature. Prior to stimulation, the well baseline fluorescence was measured every 5 seconds over 1 minute using a BioTek Synergy HT microplate reader with 485/20 nm excitation and 528/20 nm emission filters. Cells were stimulated with 1 μM A23187 or 5 ng/mL DNP (IgE-DNP) in the absence or presence of each compound, and the fluorescence was measured every 5 seconds over 2 minutes. The change in fluorescence (ΔRT) was calculated as the sample fluorescence minus the baseline fluorescence for each well.

With `CCCCCCC/C=C/C=C/C(=O)NCC(C)C` [A15, (2E,4E)-N-Isobutyldodeca-2,4-dienamide] the calcium response ([1]; BMMCs treated with A23187) was “blocked the calcium response”, the calcium response ([1]; BMMCs treated with IgE anti-DNP and DNP-BSA) was “blocked the calcium response” and the “calcium response to compound itself” value ([1]; BMMCs, A15 alone) was “did not cause a calcium response”. The release of histamine [2] was “inhibited the release of the vasoactive amine histamine”, the “percent inhibition of calcium influx” value ([3]; 5 ng/mL DNP-BSA, at 2 minutes) was 66% and the “percent inhibition of calcium influx” value ([3]; 1 μM A23187, at 2 minutes) was 76%.

Source: patent US20200290950A1, “ALKAMIDE COMPOUNDS AND USES THEREOF” (NORTH CAROLINA STATE UNIVERSITY, priority 2017, published 2020)
